Assay results reported in patent US7265152B2 (ViroPharma Incorporated, priority 2002, dated 2007).

Columns and labels:
HCV NS5B = target: T1, HCV NS5B (Hepatitis C virus genotype 1b, UniProt Q9WMX2); assay: Inhibition of viral RNA-dependent RNA polymerase (RdRp), in vitro biochemical assay; set-up: species or system HCV genotype 1b virus (BB7); settings: purified His-tagged NS5B (BB7), carboxyl terminal 21 amino acids removed; read-out: HCV pol-BB7 IC50
T1 construct: fusion protein, of which the carboxyl terminal 21 amino acids were removed to enhance its solubility; His tag (GSHHHHHH); made in house; host or cells: E. coli
From the text: The HCV NS5B-directed RdRp activity was established and characterized in a standard in vitro biochemical assay using a purified HCV NS5B protein derived from the consensus sequence of a patient infected with HCV genotype 1b virus (BB7). (See Blight K J et al., Science. 2000, 290:1972-4). The NS5B consensus sequence was cloned and expressed in E. coli as a histidine tagged (GSHHHHHH) fusion protein, of which the carboxyl terminal 21 amino acids were removed to enhance its solubility.
In addition to evaluating their activity in the replicon assay, representative compounds within the scope of the present invention, as shown in examples 1-453 of Table 1, were also evaluated for antiviral activity using this assay. A measure of the inhibitory activity of compounds of the invention may be expressed as IC50 values. IC50 values represent the concentration of the compound at which 50% of the RdRp activity is inhibited. […] These low concentrations of test compounds required to achieve 50% inhibition of the RdRp activity indicate that the compounds of the invention are effective at inhibiting RNA synthesis by viral RdRp enzymes.

[1] = test system: HCV replicon (BB7 sequence) in Huh-7-Clone A cells; assay: HCV replicon assay: ELISA of NS5A protein in replicon-containing cells (Inhibition of Viral RNA Replication); format: cell-based; settings: Hepatitis C virus; Huh-7-Clone A, NS5A ELISA, 72-hour incubation; ranges of EC50; read-out: Replicon
From the text: Antiviral activity of representative compounds of the invention was first evaluated in a human liver-derived cell line (Huh-7-Clone A) containing the HCV replicon (BB7 sequence) (See Lohmann et al. Science. 1999, 285:110-3; Blight K J et al., Science. 2000, 290:1972-4; Pietschmann, T. et al., J. Virol. 2001, 73:1252-1264; and Lohmann, V. et al., J. Virol. 2001, 75:1437-1449). The HCV replicon is a subgenomic viral RNA that expresses the HCV proteins required for its own replication. These proteins include non-structural proteins NS3, NS4A, NS4B, NS5A and NS5B. The replicon also contains a foreign gene encoding a drug-selectable marker (neomycin phosphotransferase) to allow for G418 (neomycin) selection of cells that contain the replicon.
An ELISA (enzyme-linked immunosorbant assay) was used to determine the effect of compounds within the scope of the invention on the amount of HCV NS5A protein produced after a 72-hour incubation of the replicon-containing cells in the presence of varying concentrations of compound. COSTAR® 96-well cell culture plates were used but other known cell culture plates may be used. After incubation, media is removed from wells and the cells are fixed to the assay plate using 0.05% glutaraldehyde. The glutaraldehyde is then washed off using phosphate-buffered saline (PBS) following a 1 hour incubation and cells are blocked for non-specific antibody binding using for example SUPERBLOCK® reagent (blocking buffer) in PBS. The blocking agent is rinsed from the cells with PBS after 1 hour at 37° C. and primary monoclonal antibody is added to each well containing compound. Primary antibody is incubated for 1 hour at 37° C. and rinsed 3 times with PBS containing 0.02% TWEEN-20™ before addition of Horseradish Peroxidase (HRP) conjugated secondary antibody. HRP is incubated for 1 hour at 37° C. and rinsed several times, first with PBS/TWEEN-20™ followed by PBS alone. To quantify peroxidase activity, 3,3′,5, 5′-tetramethylbenzidine (TMB) substrate is added to the plate and after 30 minutes, the plates are read in an ELISA plate reader at an OD of 650 nm. Compound dose response was measured in an 8-point dose curve diluted serially to determine the inhibitory concentration at 50% (EC50 value). […] Ranges of 50% effective concentrations (EC50s) for representative compounds within the scope of this invention are listed in Table 1. Preferred compounds have 50% effective concentrations at about 30 μM or less, more preferred compounds have 50% effective concentrations at about 5 μM or less, and most preferred compounds have 50% effective concentrations at about 0.5 μM or less.

| Compound | IC50 (HCV NS5B) [nM] | EC50 [1] [nM] |
| --- | --- | --- |
| CNC(=O)c1c(-c2ccc(F)cc2)oc2cc(NC(C)=O)c(OC)cc12 [Example 18, 6-Acetylamino-2-(4-fluoro-phenyl)-5-methoxy-benzofuran-3-carboxylic acid methylamide] | ≤ 500 | < 1000 |
| CNC(=O)c1c(-c2ccc(F)cc2)oc2cc(NC)c(OC(C)C)cc12 [Example 19, 2-(4-Fluoro-phenyl)-5-isopropoxy-6-methylamino-benzofuran-3-carboxylic acid methylamide] | ≤ 500 | < 1000 |
| CNC(=O)c1c(-c2ccc(F)cc2)oc2cc(N(C)C)c(OC(C)C)cc12 [Example 20, 6-Dimethylamino-2-(4-fluoro-phenyl)-5-isopropoxy-benzofuran-3-carboxylic acid methylamide] | ≤ 500 | < 1000 |
| CNC(=O)c1c(-c2ccc(F)cc2)oc2cc(NS(C)(=O)=O)c(OC(C)C)cc12 [Example 21, 2-(4-Fluoro-phenyl)-5-isopropoxy-6-methanesulfonylamino-benzofuran-3-carboxylic acid methylamide] | ≤ 500 | < 1000 |
| CCNc1cc2oc(-c3ccc(F)cc3)c(C(=O)NC)c2cc1OC(C)C [Example 22, 6-Ethylamino-2-(4-fluoro-phenyl)-5-isopropoxy-benzofuran-3-carboxylic acid methylamide] | ≤ 500 | < 1000 |
| CCN(CC)c1cc2oc(-c3ccc(F)cc3)c(C(=O)NC)c2cc1OC(C)C [Example 23, 6-Diethylamino-2-(4-fluoro-phenyl)-5-isopropoxy-benzofuran-3-carboxylic acid methylamide] | ≤ 500 | < 1000 |
| CNC(=O)c1c(-c2ccc(F)cc2)oc2cc(N3CCOCC3)c(OC(C)C)cc12 [Example 24, 2-(4-Fluoro-phenyl)-5-isopropoxy-6-morpholin-4-yl-benzofuran-3-carboxylic acid methylamide] | ≤ 500 | < 1000 |
| CNC(=O)c1c(-c2ccccc2)oc2ccc(OC)c(C)c12 [Example 25, 5-Methoxy-4-methyl-2-phenyl-benzofuran-3-carboxylic acid methylamide] | > 30000 | > 30000 |
| CNC(=O)c1c(-c2ccccc2)oc2ccc(C#N)cc12 [Example 26, 5-Cyano-2-phenyl-benzofuran-3-carboxylic acid methylamide] | 5000 to 30000 | < 30000 |
| CNC(=O)c1c(-c2ccncc2)oc2ccc(OC(C)C)cc12 [Example 27, 5-Isopropoxy-2-pyridin-4-yl-benzofuran-3-carboxylic acid methylamide] | 5000 to 30000 | > 30000 |
| CNC(=O)c1c(-c2ccc(F)cc2)oc2cc(-c3c(C)noc3C)c(OC)cc12 [Example 28, 6-(3,5-Dimethyl-isoxazol-4-yl)-2-(4-fluoro-phenyl)-5-methoxy-benzofuran-3-carboxylic acid methylamide] | ≤ 500 | < 1000 |
| CNC(=O)c1c(-c2ccc(F)cc2)oc2cc(N(C)S(C)(=O)=O)c(OC)cc12 [Example 29, 2-(4-Fluoro-phenyl)-6-(methanesulfonyl-methyl-amino)-5-methoxy-benzofuran-3-carboxylic acid methylamide] | ≤ 500 | < 1000 |
| CNC(=O)c1c(-c2ccc(F)cc2)oc2cc(N3CCOCC3)c(OCc3ccc(OC)cc3)cc12 [Example 30, 2-(4-Fluoro-phenyl)-5-(4-methoxy-benzyloxy)-6-morpholin-4-yl-benzofuran-3-carboxylic acid methylamide] | ≤ 500 | < 1000 |
| CNC(=O)c1c(-c2ccc(F)cc2)oc2cc(N(Cc3ccc(OC)cc3)S(C)(=O)=O)c(OCc3ccc(OC)cc3)cc12 [Example 31, 2-(4-Fluoro-phenyl)-6-[methanesulfonyl-(4-methoxy-benzyl)-amino]-5-(4-methoxy-benzyloxy)-benzofuran-3-carboxylic acid methylamide] | ≤ 500 | < 1000 |
| CCOc1cc2c(C(=O)NC)c(-c3ccc(F)cc3)oc2cc1N(CC)S(C)(=O)=O [Example 32, 5-Ethoxy-6-(ethyl-methanesulfonyl-amino)-2-(4-fluoro-phenyl)-benzofuran-3-carboxylic acid methylamide] | ≤ 500 | < 1000 |
| CNC(=O)c1c(-c2ccc(F)cc2)oc2cc(N3CCOCC3)c(OCc3nccs3)cc12 [Example 33, 2-(4-Fluoro-phenyl)-6-morpholin-4-yl-5-(thiazol-2-ylmethoxy)-benzofuran-3-carboxylic acid methylamide] | ≤ 500 | < 1000 |
| CNC(=O)c1c(-c2ccc(F)cc2)oc2cc(N(CC(C)=O)S(C)(=O)=O)c(OC(C)C)cc12 [Example 34, 2-(4-Fluoro-phenyl)-5-isopropoxy-6-[methanesulfonyl-(2-oxo-propyl)-amino]-benzofuran-3-carboxylic acid methylamide] | ≤ 500 | < 1000 |
| CNC(=O)c1c(-c2ccc(F)cc2)oc2cc(N3CCOCC3)c(OCc3cscn3)cc12 [Example 35, 2-(4-Fluoro-phenyl)-6-morpholin-4-yI-5-(thiazol-4-ylmethoxy)-benzofuran-3-carboxylic acid methylamide] | ≤ 500 | < 1000 |
| CNC(=O)c1c(-c2ccc(F)cc2)oc2cc(N(Cc3cscn3)S(C)(=O)=O)c(OC(C)C)cc12 [Example 36, 2-(4-Fluoro-phenyl)-5-isopropoxy-6-(methanesulfonyl-thiazol-4-ylmethyl-amino)-benzofuran-3-carboxylic acid methylamide] | ≤ 500 | < 1000 |
| CNC(=O)c1c(-c2ccc(F)cc2)oc2cc(-c3cc(CO)on3)c(OC(C)C)cc12 [Example 37, 2-(4-Fluoro-phenyl)-6-(5-hydroxymethyl-isoxazol-3-yl)-5-isopropoxy-benzofuran-3-carboxylic acid methylamide] | ≤ 500 | < 1000 |
| CCOc1cc2c(C(=O)NC)c(-c3ccc(F)cc3)oc2cc1N(C)S(C)(=O)=O [Example 38, 5-Ethoxy-2-(4-fluoro-phenyl)-6-(methanesulfonyl-methyl-amino)-benzofuran-3-carboxylic acid methylamide] | ≤ 500 | < 1000 |
| CNC(=O)c1c(-c2ccc(F)cc2)oc2cc(N(C)S(C)(=O)=O)c(OCc3ccc(C(=O)O)c(O)c3)cc12 [Example 39, 4-[2-(4-Fluoro-phenyl)-6-(methanesulfonyl-methyl-amino)-3-methylcarbamoyl-benzofuran-5-yloxymethyl]-2-hydroxy-benzoic acid] | ≤ 500 | < 10000 |
| CNC(=O)c1c(-c2ccc(F)cc2)oc2cc(-c3cc(CO)on3)c(OC)cc12 [Example 40, 2-(4-Fluoro-phenyl)-6-(5-hydroxymethyl-isoxazol-3-yl)-5-methoxy-benzofuran-3-carboxylic acid methylamide] | ≤ 500 | < 1000 |
| CNC(=O)c1c(-c2ccc(F)cc2)oc2cc(-c3nocc3CCO)c(OC)cc12 [Example 41, 2-(4-Fluoro-phenyl)-6-[4-(2-hydroxy-ethyl)-isoxazol-3-yl]-5-methoxy-benzofuran-3-carboxylic acid methylamide] | ≤ 500 | < 1000 |
